Values quoted from earlier work, collected in patent publication US20020127259A1, “Rumen by-pass delivery system” (priority 1998, published 2002).

conditions: given by Seghers in 1990

Row | Substance | relative rate of phospholipid hydration
1 | Phosphatidylcholine | 100%
2 | phosphatidic acid | 8.5%
3 | phosphatidylethanolamine [P-ethanolamine] | 16%
4 | phosphatidylinositol | 44%
